Test results: patent US20080234236A1, “REDUCTION OF ADVERSE EVENTS AFTER PERCUTANEOUS INTERVENTION BY USE OF A THROMBIN RECEPTOR ANTAGONIST” (priority 2007, published 2008)
pIC50: −log10 of the molar value. Entries after “also recorded” stand apart in the source; their conditions may differ.

Assays:
hERG = hERG (Homo sapiens, UniProt Q12809); experiment: hERG voltage clamp assay; format: cell-based
[1] = Monkey bleeding liability study: surgical blood loss from femoral incision site; format: in vivo, cynomolgus monkeys; details: anesthetized monkeys, single oral dose (SCH 530348 1 mg/kg, ASA 10 mg/kg, clopidogrel 2 mg/kg), mean ± SEM
Procedure: (§1) Any novel antiplatelet agent should optimally avoid incremental bleeding risk relative to the current standard of care. The bleeding risk of SCH 530348 was evaluated in anesthetized cynomoigus monkeys in which SCH 530348 was administered alone and along with aspirin and clopidogrel. Bleeding assessment was conducted following administration of single doses of SCH 530348 (1 mg/kg) and/or aspirin (10 mg/kg, ASA) and clopidogrel (2 mg/kg). Four groups of monkeys were dosed orally with either vehicle (the medium used to dissolve the drug, 0.4% methylcellulose) or drug (n=5-6/group): Group I: vehicle, Group II: SCH 530348 (1 mg/kg), Group III ASA (10 mg/kg) plus clopidogrel (2 mg/kg) and Group IV: combination of SCH 530348, ASA plus clopidogrel. Doses of various drugs used inhibited their respective platelet pathways by >90% as assessed by ex-vivo platelet aggregation in whole blood. Two hours after dosing, animals were anesthetized and bleeding risk was assessed by forearm template bleeding time and surgical blood loss from a femoral incision site.
Surgical blood loss was assessed as follows. The femoral artery and femoral vein on the hind leg of the anesthetized monkey were surgically isolated by cutting with a scalpel blade. […] A small sample was read in a spectrophotometer (at […]) and the volume of blood loss was derived from a standard curve. […]

[2] = Pharmacokinetics: blood concentration of SCH 530348; format: in vivo, humans
Procedure: As the dose of SCH 530348 increased, the onset of platelet aggregation occurred at earlier sampling time points and maximum observed inhibition of aggregation increased, with 20 and 40 mg causing consistent maximum (>80%) inhibition of TRAP-induced platelet aggregation at 1-2 hours post dose. […] The duration of these pharmacodynamic effects is consistent with the drug's long elimination half-life.
This level of platelet inhibition is believed to be sufficient to lower the risks of adverse clinical events associated with PCI. […] The term “risk-abated PCI procedures” will be understood to mean those PCI procedures that are undertaken after the patient has achieved at least 80% platelet inhibition. This represents a marked improvement over the 4-6 hour period before risk-abated PCI can be performed using the current standard of care, i.e., clopidogrel and aspirin without a thrombin receptor antagonist.

Coagulation parameters = experiment: Coagulation parameters; set-up: species or system humans; details: in vivo
From the text: Similarly, there is no effect on arachidonic acid (“AA”) -induced platelet aggregation (see FIGS. 16 and 17) or collagen-induced platelet aggregation (see FIGS. 18-21).

[3] = in vivo
From the text: The Phase 2 study was a randomized, double-blind, placebo-controlled, multicenter, dose-escalation study in men and women with symptoms of coronary heart disease undergoing nonurgent PCI.

human platelets = experiment: TRAP stimulated human platelet aggregation; format: cell-based
From the text: Schering-Plough Corp. is developing SCH 530348, which is a selective inhibitor of the primary thrombin receptor, PAR-1 (protease-activated receptor-1), on human platelets. […] Current clinical development of SCH 530348 is directed toward approval of a therapy that is adjunctive to current standard of care, e.g., the ADP antagonist clopidogrel and aspirin. However, an avoidance of bleeding risk by administration of an appropriate thrombin receptor antagonist as a monotherapy may have potential advantages over some of the currently approved antiplatelet drugs such as Plavix® (clopidogrel) and Ticlid® (ticolpidine) in certain situations such as PCI. Furthermore, the standard of care may evolve to encompass other ADP antagonists such as prasugrel. The treatment of PCI patients by administration of a thrombin receptor antagonist as adjunctive therapy to the standard of care encompasses future standards of care such as prasugrel, or any other ADP antagonist, and aspirin.

[4] = Monkey bleeding liability study: forearm template bleeding time; format: in vivo, cynomolgus monkeys; details: for Template bleeding time: anesthetized monkeys, single oral dose (SCH 530348 1 mg/kg, ASA 10 mg/kg, clopidogrel 2 mg/kg), mean ± SEM
Procedure: as §1
Template bleeding time was assessed as follows. The forearm of the monkey was shaved of hair and a precision cut (5 mm long and 1 mm deep) was made on the skin with a Simplate® bleeding device (Organon Tehnika), The duration of bleeding by blotting blood onto a filter paper at the incision site was determined. When blood was no longer absorbed onto the filter paper, bleeding was considered “stopped.” The time from initiation of the cut to when bleeding stopped is defined as the template bleeding time. In these studies bleeding time was assessed on two occasions at approximately 3.5 and 4 hrs after oral dosing with the drug.

hERG, sequence (Q12809 whole entry): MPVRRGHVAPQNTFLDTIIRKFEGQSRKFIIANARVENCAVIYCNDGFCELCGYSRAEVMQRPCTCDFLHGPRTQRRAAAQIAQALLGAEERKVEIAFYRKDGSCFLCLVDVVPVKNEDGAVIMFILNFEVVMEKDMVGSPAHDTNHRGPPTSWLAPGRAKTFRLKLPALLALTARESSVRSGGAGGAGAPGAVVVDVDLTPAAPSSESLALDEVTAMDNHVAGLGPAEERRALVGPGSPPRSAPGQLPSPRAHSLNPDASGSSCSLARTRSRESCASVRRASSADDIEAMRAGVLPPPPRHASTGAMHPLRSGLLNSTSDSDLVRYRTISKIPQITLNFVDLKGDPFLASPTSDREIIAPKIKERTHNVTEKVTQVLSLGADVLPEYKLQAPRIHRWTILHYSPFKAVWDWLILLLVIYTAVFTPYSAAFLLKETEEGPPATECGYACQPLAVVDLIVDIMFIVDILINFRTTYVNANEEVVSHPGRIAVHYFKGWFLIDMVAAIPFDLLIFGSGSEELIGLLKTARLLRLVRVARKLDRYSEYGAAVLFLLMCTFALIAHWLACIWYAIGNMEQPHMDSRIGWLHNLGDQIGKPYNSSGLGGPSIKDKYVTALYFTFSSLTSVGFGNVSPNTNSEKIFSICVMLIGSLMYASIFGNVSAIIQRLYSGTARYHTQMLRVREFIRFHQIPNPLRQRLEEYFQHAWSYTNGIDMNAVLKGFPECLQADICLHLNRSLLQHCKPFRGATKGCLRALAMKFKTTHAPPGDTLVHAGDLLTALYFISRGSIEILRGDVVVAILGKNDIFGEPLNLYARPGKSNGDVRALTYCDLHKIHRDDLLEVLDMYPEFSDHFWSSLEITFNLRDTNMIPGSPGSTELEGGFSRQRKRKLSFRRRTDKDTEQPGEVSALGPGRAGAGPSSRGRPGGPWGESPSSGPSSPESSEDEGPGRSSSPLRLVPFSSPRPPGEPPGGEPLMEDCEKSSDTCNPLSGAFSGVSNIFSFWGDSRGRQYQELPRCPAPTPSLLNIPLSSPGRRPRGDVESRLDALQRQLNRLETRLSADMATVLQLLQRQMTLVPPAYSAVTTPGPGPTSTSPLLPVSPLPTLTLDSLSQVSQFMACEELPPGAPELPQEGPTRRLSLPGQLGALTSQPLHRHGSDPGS

Work on `CCOC(=O)N[C@@H]1CC[C@@H]2[C@@H](C1)C[C@H]1C(=O)O[C@H](C)[C@H]1[C@H]2/C=C/c1ccc(-c2cccc(F)c2)cn1.O=S(=O)(O)O` [SCH 530348, ethyl [(1R,3aR,4aR,6R,8aR,9S,9aS)-9-[(E)-2-[5-(3-fluorophenyl)-2-pyridinyl]ethenyl]-dodecahydro-1-methyl-3-oxonaphtho[2,3-c]furan-6-yl] carbamate bisulfate] yielded a pIC50 (hERG) of roughly 6.47, a Surgical blood loss [1] of 0.18 mL/h and a Surgical blood loss ([1]; listed as Group II) of 0.18 ± 0.03 mL/h. For the same compound, the “Time to peak blood concentration levels” value ([2]; 40 mg loading dose) was “in as little as one hour”, the Elimination half-life ([2]; in vivo) was “long” and the Affecting coagulation parameters (Coagulation parameters) was “without”. The “Discontinuation of study drug for any adverse event, patients (%)” value [3] was 6%, the “Patients completing the sixty day treatment period (%)” value [3] was 84% and the pIC50 (human platelets) was 7.82. The “Bleeding risk / prolongation of bleeding” value ([4]; SCH 530348 1 mg/kg alone or with aspirin and clopidogrel, 1 mg/kg) was “no bleeding risk; also recorded: no prolongation of bleeding”, the Template bleeding time [4] was 4.9 min and the Template bleeding time ([4]; listed as Group II) was 4.9 ± 0.99 min.
